The text below walks through data of publication PMC11406233 (Proceedings of the National Academy of Sciences of the …, 2024).

Experiment [1] deals with SCoV2^WK521WT + SCoV2^WK521A191T. In kind it is cell-based, SARS-CoV-2.
In the next experiment the test system is rgSCoV2WT. The experiment can be described thus: microbe, parasite or virus in culture. In kind it is cell-based. The settings on record: Severe acute respiratory syndrome coronavirus 2, VeroE6/TMPRSS2, read-out: EC50±SD.
Experiment [2] deals with SCoV2^WK521A191T. Set-up: species or system SARS-CoV-2. The note with it: read-out: EC50 from cell-based assay.
The next experiment has as its system rgSCoV2E166V. The class given is cell-based, SARS-CoV-2.
For experiment [3], the system named is SCoV2^WK521A191T. Set-up: species or system SARS-CoV-2. The settings on record: read-out: EC50 from cell-based assay. This is another data set of the same source.
The subject of a further experiment is rgSCoV2L50F/E166V. In kind it is cell-based, SARS-CoV-2.
The target in experiment [4] is T1, M^proE166V (Severe acute respiratory syndrome coronavirus 2, UniProt P0DTD1, E3429V). The class given is biochemical, SARS-CoV-2.
The subject of experiment [5] is SCoV2^WK521WT + SCoV2^WK521E166V. The class given is cell-based, SARS-CoV-2.
Another experiment has as its system SCoV2^WK521E166V. The class given is cell-based, SARS-CoV-2.
The target of experiment [6] is T1, M^proE166V. The class given is binding, SARS-CoV-2.

Read-outs that look alike come from different tables or passages of the source.

One may read the EC50 as the midpoint of the concentration-response curve. For the compound `COc1cccc2[nH]c(C(=O)N[C@@H](CC(C)C)C(=O)N[C@@H](C[C@@H]3CCNC3=O)C(=O)c3nc4ccccc4s3)cc12` [5h], in experiment [1], the “Pattern of replicability in CSRA” value is listed as “SCoV2^WK521A191T predominated SCoV2^WK521 throughout all the concentrations tested”. The EC50 was 13.5 µM in the experiment on rgSCoV2WT; over 100 µM in the experiment on SCoV2^WK521A191T [2]; 13.5 ± 0.15 µM with rgSCoV2E166V; 35 ± 0.08 µM in the experiment on SCoV2^WK521A191T [3]; 13.4 ± 0.48 µM with rgSCoV2L50F/E166V.
Take `CC(C)(C)[C@H](NC(=O)C(F)(F)F)C(=O)N1C[C@H]2[C@@H]([C@H]1C(=O)N[C@@H](C[C@@H]1CCNC1=O)C(=O)c1nc3c(F)cccc3s1)C2(C)C` [TKB245]: at M^proE166V [4], the “Factor of greater binding affinity to MproE166V than nirmatrelvir” value is recorded as 6.8. Besides, in experiment [5], the “SCoV2^WK521E166V population” value was determined as 100%. Also, in [5], the “SCoV2^WK521WT population” value stood at 100%. Also, the concentration for a half-maximal effect (EC50) was determined as 0.78 µM in the experiment on rgSCoV2WT, 6.6 µM with rgSCoV2E166V and 11.4 µM with rgSCoV2L50F/E166V. Besides, the “Difference in the EC50 values of NIR and TKB245” value with SCoV2^WK521E166V came to 207 fold. Moreover, the “Complex formation with MproE166V in crystallization” value at M^proE166V [6] was “TKB245 binds to M^proE166V”.
Regarding `CC(C)(C)[C@H](NC(=O)C(F)(F)F)C(=O)N1C[C@H]2[C@@H]([C@H]1C(=O)N[C@H](C#N)C[C@@H]1CCNC1=O)C2(C)C` [nirmatrelvir, reference compound], in the experiment on rgSCoV2WT, the EC50 stood at 4.4 µM.
